Experimental findings from US11173151B2, “Substituted triazole derivatives and uses thereof” (BAYER AKTIENGESELLSCHAFT, priority 2017, dated 2021) are described below.

One experiment has as its target T1, human V2 receptor (Homo sapiens, UniProt P30518).
T1 construct: expressed in transfected cells; host or cells: CHO K1 (ATCC) expressing firefly luciferase under a CRE-responsive promoter
Nature of the experiment: Cellular in vitro assay for determining vasopressin receptor activity, V2 receptor cell line (CHO, CRE-luciferase). It counts as cell-based. As to conditions: CHO cell line transfected with human V2 receptor; [Arg8]-vasopressin at EC50 concentration, 3 hours; read-out: IC50 hV2. How it is done:
(§1) B-1. Cellular In Vitro Assay for Determining Vasopressin Receptor Activity
(§2) The identification of agonists and antagonists of the V1a and V2 vasopressin receptors from humans, rats and dogs as well as the quantification of the activity of the compounds of the invention is carried out using recombinant cell lines. These cell lines originally derive from a hamster's ovary epithelial cell (Chinese Hamster Ovary, CHO K1, ATCC: American Type Culture Collection, Manassas, Va. 20108, USA). The test cell lines constitutively express the human, rat or dog V1a or V2 receptors. In case of the Gαq-coupled V1a receptors, cells are also stably transfected with a modified form of the calcium-sensitive photoproteins aequorin (human and rat V1a) or obelin (dog V1a), which, after reconstitution with the cofactor coelenterazine, emit light when there are increases in free calcium concentrations [Rizzuto R, Simpson A W, Brini M, Pozzan T, Nature 358, 325-327 (1992); Illarionov B A, Bondar V S, Illarionova V A, Vysotski E S, Gene 153 (2), 273-274 (1995)]. The resulting vasopressin receptor cells react to stimulation of the recombinantly expressed V1a receptors by intracellular release of calcium ions, which can be quantified by the resulting photoprotein luminescence. The Gs-coupled V2 receptors are stably transfected into cell lines expressing the gene for firefly luciferase under control of a CRE-responsible promoter. Activation of V2 receptors induces the activation of the CRE-responsive promoter via cAMP increase, thereby inducing the expression of firefly luciferase. The light emitted by photoproteins of V1a cell lines as well as the light emitted by firefly luciferase of V2 cell lines corresponds to the activation or inhibition of the respective vasopressin receptor. The bioluminescence of the cell lines is detected using a suitable luminometer [Milligan G, Marshall F, Rees S, Trends in Pharmacological Sciences 17, 235-237 (1996)].
Vasopressin V2 Receptor Cell Lines:
On the day before the assay, the cells are plated out in culture medium (DMEM/F12, 2% FCS, 2 mM glutamine, 10 mM HEPES) in 384-well microtiter plates and kept in a cell incubator (96% humidity, 5% v/v CO2, 37° C.). On the day of the assay, test compounds in various concentrations and the agonist [Arg^8]-vasopressin at EC50 concentration are added together to the wells, and plates are incubated for 3 hours in a cell incubator. Upon addition of the cell lysis reagent Triton™ and the substrate luciferin, luminescence of firefly luciferase is measured in a luminometer.
(§3) Table 1A below lists individual IC50 values for the compounds of the invention (including racemic mixtures as well as separated enantiomers) that were obtained from cell lines transfected with the human V1a or V2 receptor: […]

Another experiment addresses T2, human V1a receptor (Homo sapiens, UniProt P37288).
T2 construct: expressed in transfected cells; host or cells: CHO K1 (ATCC), also stably transfected with a modified aequorin
Nature of the experiment: Cellular in vitro assay for determining vasopressin receptor activity, V1a receptor cell line (CHO, aequorin luminescence). It counts as cell-based. The conditions noted are these: for IC50: CHO cell line transfected with human V1a receptor, [Arg]-vasopressin at EC50 concentration, read-out: IC50 hV1a; for ratio IC50 hV2/hV1a: selectivity ratio IC50 hV2 / IC50 hV1a. The protocol:
as §1, §2
Vasopressin V1a Receptor Cell Lines:
On the day before the assay, the cells are plated out in culture medium (DMEM/F12, 2% FCS, 2 mM glutamine, 10 mM HEPES, 5 μg/ml coelenterazine) in 384-well microtiter plates and kept in a cell incubator (96% humidity, 5% v/v CO2, 37° C.). On the day of the assay, test compounds in various concentrations are placed for 10 minutes in the wells of the microtiter plate before the agonist [Arg]-vasopressin at EC50 concentration is added. The resulting light signal is measured immediately in a luminometer.
as §3

T1 sequence (P30518 whole entry): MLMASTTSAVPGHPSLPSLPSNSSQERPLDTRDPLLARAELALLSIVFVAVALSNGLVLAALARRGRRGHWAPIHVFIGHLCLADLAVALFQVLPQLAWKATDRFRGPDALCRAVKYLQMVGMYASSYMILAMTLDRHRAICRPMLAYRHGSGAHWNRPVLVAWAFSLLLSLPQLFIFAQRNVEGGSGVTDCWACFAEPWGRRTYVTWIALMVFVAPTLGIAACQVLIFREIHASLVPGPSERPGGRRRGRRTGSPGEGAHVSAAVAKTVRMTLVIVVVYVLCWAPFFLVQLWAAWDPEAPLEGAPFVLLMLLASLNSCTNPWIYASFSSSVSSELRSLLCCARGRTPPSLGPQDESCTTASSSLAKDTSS
T2 sequence (P37288 whole entry): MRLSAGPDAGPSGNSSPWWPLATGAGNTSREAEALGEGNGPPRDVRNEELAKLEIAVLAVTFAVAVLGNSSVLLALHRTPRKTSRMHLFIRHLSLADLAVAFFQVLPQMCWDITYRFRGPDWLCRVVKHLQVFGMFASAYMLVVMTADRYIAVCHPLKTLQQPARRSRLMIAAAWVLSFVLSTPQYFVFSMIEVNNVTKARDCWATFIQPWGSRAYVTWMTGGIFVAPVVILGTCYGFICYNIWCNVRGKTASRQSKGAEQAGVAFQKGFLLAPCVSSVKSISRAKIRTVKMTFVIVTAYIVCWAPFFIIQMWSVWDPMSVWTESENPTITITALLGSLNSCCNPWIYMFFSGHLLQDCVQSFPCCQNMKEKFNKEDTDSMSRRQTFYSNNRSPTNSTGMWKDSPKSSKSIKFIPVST

As a reminder, the IC50 is the concentration needed to halve the response being measured. With `O=C(Nc1cccnc1-n1cnc(Cn2nc(-c3ccc(Cl)cc3)n(C[C@H](O)C(F)(F)F)c2=O)n1)C1CCS(=O)(=O)C1` (mixture of isomers) [Example 50, N-{2-[3-({3-(4-Chlorophenyl)-5-oxo-4-[(2S)-3,3,3-trifluoro-2-hydroxypropyl]-4,5-dihydro-1H-1,2,4-triazol-1-yl}methyl)-1H-1,2,4-triazol-1-yl]pyridin-3-yl}tetrahydrothiophene-3-carboxamide 1,1-dioxide], on human V2 receptor, the IC50 came to 4370 nM. For the same compound, on human V1a receptor, the IC50 came out at 20.5 nM and the “ratio IC50 hV2/hV1a” value was determined as 213.0.

Take `O=C(Nc1cccnc1-n1cnc(Cn2nc(-c3ccc(Cl)cc3)n(CC(O)C(F)(F)F)c2=O)n1)C1CC1F` (mixture of isomers) [Example 59, N-{2-[3-({3-(4-Chlorophenyl)-5-oxo-4-[(2S)-3,3,3-trifluoro-2-hydroxypropyl]-4,5-dihydro-1H-1,2,4-triazol-1-yl}methyl)-1H-1,2,4-triazol-1-yl]pyridin-3-yl}-2-fluorocyclopropanecarboxamide]: the IC50 on human V2 receptor amounted to 950 nM; at human V1a receptor it was 5.13 nM. In addition, at human V1a receptor, the “ratio IC50 hV2/hV1a” value is reported as 185.4.

As for `O=C(Nc1ncccc1-n1cnc(Cn2nc(-c3ccc(Cl)cc3)n(C[C@H](O)C(F)(F)F)c2=O)n1)C1CC1(F)F` (mixture of isomers) [Example 75, N-{3-[3-({3-(4-Chlorophenyl)-5-oxo-4-[(2S)-3,3,3-trifluoro-2-hydroxypropyl]-4,5-dihydro-1H-1,2,4-triazol-1-yl}methyl)-1H-1,2,4-triazol-1-yl]pyridin-2-yl}-2,2-difluorocyclopropanecarboxamide], the IC50 at human V2 receptor was determined as 1300 nM. On human V1a receptor, the IC50 turned out to be 6.6 nM and the “ratio IC50 hV2/hV1a” value was determined as 197.0.

On to `O=C(Nc1ncccc1-n1cnc(Cn2nc(-c3ccc(Cl)cc3)n(C[C@H](O)C(F)(F)F)c2=O)n1)C1CCS(=O)(=O)C1` (mixture of isomers) [Example 82, N-{3-[3-({3-(4-Chlorophenyl)-5-oxo-4-[(2S)-3,3,3-trifluoro-2-hydroxypropyl]-4,5-dihydro-1H-1,2,4-triazol-1-yl}methyl)-1H-1,2,4-triazol-1-yl]pyridin-2-yl}tetrahydrothiophene-3-carboxamide 1,1-dioxide], for which the half-inhibitory concentration (IC50) on human V2 receptor came out at 335 nM; on human V1a receptor, 33 nM. Moreover, the “ratio IC50 hV2/hV1a” value at human V1a receptor came out at 10.2.

On to `CC1(O)CCN(C(=O)c2ccccc2-n2cnc(Cn3nc(-c4ccc(Cl)cc4)n(C[C@H](O)C(F)(F)F)c3=O)n2)C1` (mixture of isomers) [Example 183, 5-(4-Chlorophenyl)-2-{[1-(2-{[3-hydroxy-3-methylpyrrolidin-1-yl]carbonyl}phenyl)-1H-1,2,4-triazol-3-yl]methyl}-4-[(2S)-3,3,3-trifluoro-2-hydroxypropyl]-2,4-dihydro-3H-1,2,4-triazol-3-one], for which the IC50 on human V2 receptor is 3500 nM. Besides, at human V1a receptor, the IC50 is 88 nM and the “ratio IC50 hV2/hV1a” value stood at 39.8.

`O=C1CCC(NC(=O)c2ccccc2-n2cnc(Cn3nc(-c4ccc(Cl)cc4)n(C[C@H](O)C(F)(F)F)c3=O)n2)CN1` (mixture of isomers) [Example 191]: the IC50 at human V2 receptor is 3750 nM. Besides, at human V1a receptor, the IC50 worked out at 19.5 nM and the “ratio IC50 hV2/hV1a” value turned out to be 192.3.

For the compound `NC(CNC(=O)c1ccccc1-n1cnc(Cn2nc(-c3ccc(Cl)cc3)n(C[C@H](O)C(F)(F)F)c2=O)n1)C(F)(F)C(F)F` (mixture of isomers) [Example 196, N-[2-Amino-3,3,4,4-tetrafluorobutyl]-2-[3-({3-(4-chlorophenyl)-5-oxo-4-[(2S)-3,3,3-trifluoro-2-hydroxypropyl]-4,5-dihydro-1H-1,2,4-triazol-1-yl}methyl)-1H-1,2,4-triazol-1-yl]benzamide], the IC50 at human V2 receptor was found to be 855 nM; on human V1a receptor, 22 nM. Moreover, the “ratio IC50 hV2/hV1a” value on human V1a receptor was 38.9.

As for `CC1(CNC(=O)c2ccccc2-n2cnc(Cn3nc(-c4ccc(Cl)cc4)n(C[C@H](O)C(F)(F)F)c3=O)n2)CCCO1` (mixture of isomers) [Example 202, 2-[3-({3-(4-Chlorophenyl)-5-oxo-4-[(2S)-3,3,3-trifluoro-2-hydroxypropyl]-4,5-dihydro-1H-1,2,4-triazol-1-yl}methyl)-1H-1,2,4-triazol-1-yl]-N-{[2-methyltetrahydrofuran-2-yl]methyl}benzamide], the IC50 on human V2 receptor came out at 4.05 nM. On human V1a receptor, the IC50 amounted to 4.3 nM and the “ratio IC50 hV2/hV1a” value came to 0.9.

Consider `CCC(C)NC(=O)c1ccccc1-n1cnc(Cn2nc(-c3ccc(Cl)cc3)n(C[C@H](O)C(F)(F)F)c2=O)n1` (mixture of isomers) [Example 204, N-[Butan-2-yl]-2-[3-({3-(4-chlorophenyl)-5-oxo-4-[(2S)-3,3,3-trifluoro-2-hydroxypropyl]-4,5-dihydro-1H-1,2,4-triazol-1-yl}methyl)-1H-1,2,4-triazol-1-yl]benzamide], for which the IC50 on human V2 receptor is 115 nM. At human V1a receptor, the IC50 stood at 1.25 nM and the “ratio IC50 hV2/hV1a” value was 92.0.

For `O=C(NC1CCOC1)c1ccccc1-n1cnc(Cn2nc(-c3ccc(Cl)cc3)n(C[C@H](O)C(F)(F)F)c2=O)n1` (mixture of isomers) [Example 208, 2-[3-({3-(4-Chlorophenyl)-5-oxo-4-[(2S)-3,3,3-trifluoro-2-hydroxypropyl]-4,5-dihydro-1H-1,2,4-triazol-1-yl}methyl)-1H-1,2,4-triazol-1-yl]-N-[tetrahydrofuran-3-yl]benzamide], the IC50 at human V2 receptor amounted to 95.5 nM. In addition, at human V1a receptor, the IC50 is 2.4 nM and the “ratio IC50 hV2/hV1a” value is 39.8.

For the compound `CC1CCCC(NC(=O)c2ccccc2-n2cnc(Cn3nc(-c4ccc(Cl)cc4)n(C[C@H](O)C(F)(F)F)c3=O)n2)C1` (mixture of isomers) [Example 224, 2-[3-({3-(4-Chlorophenyl)-5-oxo-4-[(2S)-3,3,3-trifluoro-2-hydroxypropyl]-4,5-dihydro-1H-1,2,4-triazol-1-yl}methyl)-1H-1,2,4-triazol-1-yl]-N-(3-methylcyclohexyl)benzamide], the IC50 on human V2 receptor amounted to 145 nM; on human V1a receptor, 12.6 nM. At human V1a receptor, the “ratio IC50 hV2/hV1a” value is given as 11.5.

Take `O=C(NC1CCOC1=O)c1ccccc1-n1cnc(Cn2nc(-c3ccc(Cl)cc3)n(C[C@H](O)C(F)(F)F)c2=O)n1` (mixture of isomers) [Example 231, 2-[3-({3-(4-Chlorophenyl)-5-oxo-4-[(2S)-3,3,3-trifluoro-2-hydroxypropyl]-4,5-dihydro-1H-1,2,4-triazol-1-yl}methyl)-1H-1,2,4-triazol-1-yl]-N-[(3S)-2-oxotetrahydrofuran-3-yl]benzamide]: the IC50 at human V2 receptor was 775 nM. On human V1a receptor, the half-inhibitory concentration (IC50) amounted to 3.05 nM and the “ratio IC50 hV2/hV1a” value was 254.1.

On to `COC1CCCN(C(=O)c2ccccc2-n2cnc(Cn3nc(-c4ccc(Cl)cc4)n(C[C@H](O)C(F)(F)F)c3=O)n2)C1` (mixture of isomers) [Example 269, 5-(4-Chlorophenyl)-2-{[1-(2-{[3-methoxypiperidin-1-yl]carbonyl}phenyl)-1H-1,2,4-triazol-3-yl]methyl}-4-[(2S)-3,3,3-trifluoro-2-hydroxypropyl]-2,4-dihydro-3H-1,2,4-triazol-3-one], for which, at human V2 receptor, the IC50 was 1050 nM. For the same compound, at human V1a receptor, the IC50 stood at 2.5 nM and the “ratio IC50 hV2/hV1a” value was 422.0.

As for `CC1SCCN1C(=O)c1ccccc1-n1cnc(Cn2nc(-c3ccc(Cl)cc3)n(C[C@H](O)C(F)(F)F)c2=O)n1` (mixture of isomers) [Example 270, 5-(4-Chlorophenyl)-2-{[1-(2-{[2-methyl-1,3-thiazolidin-3-yl]carbonyl}phenyl)-1H-1,2,4-triazol-3-yl]methyl}-4-[(2S)-3,3,3-trifluoro-2-hydroxypropyl]-2,4-dihydro-3H-1,2,4-triazol-3-one], the values for the IC50 on human V2 receptor and on human V1a receptor were 1440 nM and 2.1 nM, respectively. In addition, the “ratio IC50 hV2/hV1a” value on human V1a receptor is on record as 685.7.
